Values quoted from earlier work in patent US20230372216A1, “METHOD FOR DYEING KERATINOUS MATERIAL, COMPRISING THE USE OF AN ORGANOSILICON COMPOUND, A DYEING COMPOUND, A SEALING REAGENT AND A PRE-TREATMENT AGENT” (Henkel AG & Co. KGaA, priority 2020, published 2023).

Details: 25° C.

In the case of `O=C([O-])c1c(Cl)c(Cl)c(Cl)c(Cl)c1-c1c2c(Br)cc(=O)c(Br)c-2oc2c(Br)c(O)cc(Br)c12.O=C([O-])c1c(Cl)c(Cl)c(Cl)c(Cl)c1-c1c2c(Br)cc(=O)c(Br)c-2oc2c(Br)c(O)cc(Br)c12.[Na+].[Na+]` [Acid Red 92, disodium salt of 3,4,5,6-tetrachloro-2-(1,4,5,8-tetrabromo-6-hydroxy-3-oxoxanthen-9-yl)benzoic acid], the solubility in water is listed as “greater than 10 g/L”.

In the case of `CCN(Cc1cccc(S(=O)(=O)[O-])c1)c1ccc(C(=C2C=CC(=[N+](CC)Cc3cccc(S(=O)(=O)[O-])c3)C=C2)c2ccccc2S(=O)(=O)[O-])cc1.[Na+].[Na+]` [Acid Blue 9], the solubility in water is given as “more than 20 wt. %”.

For `O=S(=O)([O-])c1ccc(N=Nc2c(O)ccc3ccccc23)cc1.[Na+]` [Acid Orange 7, sodium salt of 4-[(2-hydroxy-1-naphthyl)azo]benzene sulphonate], the solubility in water is given as “more than 7 g/L”.

For “sodium salts of mono- and disulfonic acids of 2-(2-quinolyl)-1H-indene-1,3(2H)-dione [Acid Yellow 3]”, the solubility in water is given as 20 mg/mL.

For `O=C([O-])C1=NN(c2ccc(S(=O)(=O)[O-])cc2)C(=O)C1N=Nc1ccc(S(=O)(=O)[O-])cc1.[Na+].[Na+].[Na+]` (stereo not drawn) [Acid Yellow 23, trisodium salt of 4,5-dihydro-5-oxo-1-(4-sulfophenyl)-4-((4-sulfophenyl)azo)-1H-pyrazole-3-carboxylic acid], the “solubility in water (in words)” value is given as “highly soluble in water”.

In the case of `Nc1cc(S(=O)(=O)[O-])cc2cc(S(=O)(=O)[O-])c(N=Nc3ccccc3)c(O)c12.[Na+].[Na+]` [Acid Red 33, disodium salt of 5-amino-4-hydroxy-3-(phenylazo)-naphthalene-2,7-disulphonate], the solubility in water is listed as 2.5 mg/mL.
